What was measured:
Assay in all cases: KinaseProfiler Assay
SRPK1(h) = SRPK1(h) (Homo sapiens, UniProt Q96SB4)
Blk(m) = Blk(m) (Mus musculus, UniProt P16277)
MSK2(h) = MSK2(h) (Homo sapiens, UniProt O75676)
BrSK1(h) = target: T1, BrSK1(h) (Homo sapiens, UniProt Q8TDC3)
T1 sequence (Q8TDC3 1-778): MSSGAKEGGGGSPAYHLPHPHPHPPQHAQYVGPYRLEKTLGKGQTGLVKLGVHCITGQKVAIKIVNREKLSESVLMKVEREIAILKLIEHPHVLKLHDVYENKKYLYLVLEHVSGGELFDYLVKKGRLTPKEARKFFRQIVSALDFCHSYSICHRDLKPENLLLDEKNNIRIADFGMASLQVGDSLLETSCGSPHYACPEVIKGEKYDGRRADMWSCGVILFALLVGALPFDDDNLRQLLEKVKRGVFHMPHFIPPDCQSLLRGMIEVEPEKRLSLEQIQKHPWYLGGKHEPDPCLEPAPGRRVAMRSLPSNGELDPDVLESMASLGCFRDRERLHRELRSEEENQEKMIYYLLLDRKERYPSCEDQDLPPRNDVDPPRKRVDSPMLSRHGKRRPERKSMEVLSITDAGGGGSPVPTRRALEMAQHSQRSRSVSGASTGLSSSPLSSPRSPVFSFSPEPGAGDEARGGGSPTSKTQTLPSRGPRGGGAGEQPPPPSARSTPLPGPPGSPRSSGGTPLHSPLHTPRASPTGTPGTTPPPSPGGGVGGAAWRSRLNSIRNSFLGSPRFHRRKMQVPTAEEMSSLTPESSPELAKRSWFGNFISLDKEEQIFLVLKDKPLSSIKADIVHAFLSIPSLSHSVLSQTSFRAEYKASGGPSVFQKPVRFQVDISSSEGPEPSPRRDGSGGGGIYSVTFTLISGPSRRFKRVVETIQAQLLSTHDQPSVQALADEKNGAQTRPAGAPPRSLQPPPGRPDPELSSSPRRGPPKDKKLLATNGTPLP

Src(1-530)(h) = Src(1-530)(h) (Homo sapiens, UniProt P12931)
TrkB(h) = TrkB(h) (Homo sapiens, UniProt Q16620)
PKCβI(h) = PKCβI(h) (Homo sapiens, UniProt P05771)
PKCβI(h), sequence (P05771 whole entry): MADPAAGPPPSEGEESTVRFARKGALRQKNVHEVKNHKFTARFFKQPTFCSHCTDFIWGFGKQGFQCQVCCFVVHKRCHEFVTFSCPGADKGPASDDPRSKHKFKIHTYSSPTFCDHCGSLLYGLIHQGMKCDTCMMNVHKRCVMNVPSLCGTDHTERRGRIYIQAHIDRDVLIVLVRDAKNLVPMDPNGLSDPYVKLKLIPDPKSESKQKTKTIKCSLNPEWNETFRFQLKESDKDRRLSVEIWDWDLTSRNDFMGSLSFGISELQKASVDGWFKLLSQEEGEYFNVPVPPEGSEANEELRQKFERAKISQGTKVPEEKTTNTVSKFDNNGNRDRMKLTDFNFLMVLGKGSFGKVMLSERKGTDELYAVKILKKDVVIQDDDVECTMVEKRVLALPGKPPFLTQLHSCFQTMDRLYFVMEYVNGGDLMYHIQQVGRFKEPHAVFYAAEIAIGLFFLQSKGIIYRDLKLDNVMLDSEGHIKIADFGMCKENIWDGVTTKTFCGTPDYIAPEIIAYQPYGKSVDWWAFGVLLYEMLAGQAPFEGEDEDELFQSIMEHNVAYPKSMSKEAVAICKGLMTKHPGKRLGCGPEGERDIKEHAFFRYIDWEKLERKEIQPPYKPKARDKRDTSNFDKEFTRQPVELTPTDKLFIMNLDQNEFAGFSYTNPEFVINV

EphA2(h) = EphA2(h) (Homo sapiens, UniProt P29317)
CDK5/p25(h) = CDK5/p25(h) (Homo sapiens, UniProt Q00535)
CDK5/p25(h), sequence (Q00535 whole entry): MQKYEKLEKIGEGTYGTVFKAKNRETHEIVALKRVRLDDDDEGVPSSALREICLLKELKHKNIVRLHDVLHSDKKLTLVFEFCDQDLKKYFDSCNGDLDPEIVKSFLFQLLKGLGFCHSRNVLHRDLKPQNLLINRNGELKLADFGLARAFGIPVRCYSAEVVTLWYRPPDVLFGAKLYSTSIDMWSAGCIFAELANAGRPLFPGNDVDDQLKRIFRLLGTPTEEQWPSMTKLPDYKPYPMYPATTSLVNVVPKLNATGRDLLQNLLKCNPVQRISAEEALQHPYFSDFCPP
CDK5/p25(h), sequence (Q15078 99-307 partner limits assumed): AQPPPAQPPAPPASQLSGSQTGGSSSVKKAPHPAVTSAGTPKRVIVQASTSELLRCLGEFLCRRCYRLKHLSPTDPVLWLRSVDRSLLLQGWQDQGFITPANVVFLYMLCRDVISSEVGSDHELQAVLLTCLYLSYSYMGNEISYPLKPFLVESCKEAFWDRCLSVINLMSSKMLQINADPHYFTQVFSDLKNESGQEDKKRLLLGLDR

PKA(h) = PKA(h) (Homo sapiens, UniProt P17612)
Ron(h) = Ron(h) (Homo sapiens, UniProt Q04912)
Ron(h), sequence (Q04912 25-1400): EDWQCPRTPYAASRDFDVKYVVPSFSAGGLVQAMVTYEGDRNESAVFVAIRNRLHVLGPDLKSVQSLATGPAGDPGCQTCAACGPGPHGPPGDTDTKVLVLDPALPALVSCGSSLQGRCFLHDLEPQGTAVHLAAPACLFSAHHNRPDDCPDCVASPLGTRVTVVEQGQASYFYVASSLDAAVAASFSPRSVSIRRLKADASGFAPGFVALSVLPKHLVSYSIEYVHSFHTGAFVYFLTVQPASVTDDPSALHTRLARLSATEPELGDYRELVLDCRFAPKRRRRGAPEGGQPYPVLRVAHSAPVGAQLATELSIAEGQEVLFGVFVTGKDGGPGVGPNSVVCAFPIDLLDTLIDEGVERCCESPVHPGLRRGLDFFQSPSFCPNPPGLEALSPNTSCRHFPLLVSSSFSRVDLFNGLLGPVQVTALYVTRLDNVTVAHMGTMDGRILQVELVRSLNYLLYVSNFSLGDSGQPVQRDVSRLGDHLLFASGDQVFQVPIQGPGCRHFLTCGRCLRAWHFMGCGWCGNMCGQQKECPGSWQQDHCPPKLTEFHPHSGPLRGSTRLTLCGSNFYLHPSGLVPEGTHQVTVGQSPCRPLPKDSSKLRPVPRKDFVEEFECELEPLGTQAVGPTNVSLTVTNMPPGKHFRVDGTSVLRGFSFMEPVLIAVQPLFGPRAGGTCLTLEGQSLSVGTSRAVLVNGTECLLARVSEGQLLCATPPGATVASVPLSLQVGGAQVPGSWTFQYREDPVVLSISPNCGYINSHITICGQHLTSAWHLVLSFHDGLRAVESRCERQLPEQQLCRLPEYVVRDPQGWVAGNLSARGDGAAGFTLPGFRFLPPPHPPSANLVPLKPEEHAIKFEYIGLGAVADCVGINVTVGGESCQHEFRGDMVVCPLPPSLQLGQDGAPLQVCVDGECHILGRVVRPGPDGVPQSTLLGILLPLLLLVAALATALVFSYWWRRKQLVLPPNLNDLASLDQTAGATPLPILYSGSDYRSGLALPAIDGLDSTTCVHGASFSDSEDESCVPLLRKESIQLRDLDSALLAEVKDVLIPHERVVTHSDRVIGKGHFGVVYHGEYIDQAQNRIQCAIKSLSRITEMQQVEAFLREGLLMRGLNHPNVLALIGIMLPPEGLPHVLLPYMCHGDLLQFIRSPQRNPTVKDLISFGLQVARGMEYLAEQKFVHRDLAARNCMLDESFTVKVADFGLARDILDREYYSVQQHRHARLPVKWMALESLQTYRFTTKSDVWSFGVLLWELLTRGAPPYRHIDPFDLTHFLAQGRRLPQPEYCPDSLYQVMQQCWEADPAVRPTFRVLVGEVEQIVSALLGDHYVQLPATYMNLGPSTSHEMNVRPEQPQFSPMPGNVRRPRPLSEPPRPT

PAK4(h) = PAK4(h) (Homo sapiens, UniProt O96013)
DAPK1(h) = DAPK1(h) (Homo sapiens, UniProt P53355)
DAPK1(h), sequence (P53355 whole entry): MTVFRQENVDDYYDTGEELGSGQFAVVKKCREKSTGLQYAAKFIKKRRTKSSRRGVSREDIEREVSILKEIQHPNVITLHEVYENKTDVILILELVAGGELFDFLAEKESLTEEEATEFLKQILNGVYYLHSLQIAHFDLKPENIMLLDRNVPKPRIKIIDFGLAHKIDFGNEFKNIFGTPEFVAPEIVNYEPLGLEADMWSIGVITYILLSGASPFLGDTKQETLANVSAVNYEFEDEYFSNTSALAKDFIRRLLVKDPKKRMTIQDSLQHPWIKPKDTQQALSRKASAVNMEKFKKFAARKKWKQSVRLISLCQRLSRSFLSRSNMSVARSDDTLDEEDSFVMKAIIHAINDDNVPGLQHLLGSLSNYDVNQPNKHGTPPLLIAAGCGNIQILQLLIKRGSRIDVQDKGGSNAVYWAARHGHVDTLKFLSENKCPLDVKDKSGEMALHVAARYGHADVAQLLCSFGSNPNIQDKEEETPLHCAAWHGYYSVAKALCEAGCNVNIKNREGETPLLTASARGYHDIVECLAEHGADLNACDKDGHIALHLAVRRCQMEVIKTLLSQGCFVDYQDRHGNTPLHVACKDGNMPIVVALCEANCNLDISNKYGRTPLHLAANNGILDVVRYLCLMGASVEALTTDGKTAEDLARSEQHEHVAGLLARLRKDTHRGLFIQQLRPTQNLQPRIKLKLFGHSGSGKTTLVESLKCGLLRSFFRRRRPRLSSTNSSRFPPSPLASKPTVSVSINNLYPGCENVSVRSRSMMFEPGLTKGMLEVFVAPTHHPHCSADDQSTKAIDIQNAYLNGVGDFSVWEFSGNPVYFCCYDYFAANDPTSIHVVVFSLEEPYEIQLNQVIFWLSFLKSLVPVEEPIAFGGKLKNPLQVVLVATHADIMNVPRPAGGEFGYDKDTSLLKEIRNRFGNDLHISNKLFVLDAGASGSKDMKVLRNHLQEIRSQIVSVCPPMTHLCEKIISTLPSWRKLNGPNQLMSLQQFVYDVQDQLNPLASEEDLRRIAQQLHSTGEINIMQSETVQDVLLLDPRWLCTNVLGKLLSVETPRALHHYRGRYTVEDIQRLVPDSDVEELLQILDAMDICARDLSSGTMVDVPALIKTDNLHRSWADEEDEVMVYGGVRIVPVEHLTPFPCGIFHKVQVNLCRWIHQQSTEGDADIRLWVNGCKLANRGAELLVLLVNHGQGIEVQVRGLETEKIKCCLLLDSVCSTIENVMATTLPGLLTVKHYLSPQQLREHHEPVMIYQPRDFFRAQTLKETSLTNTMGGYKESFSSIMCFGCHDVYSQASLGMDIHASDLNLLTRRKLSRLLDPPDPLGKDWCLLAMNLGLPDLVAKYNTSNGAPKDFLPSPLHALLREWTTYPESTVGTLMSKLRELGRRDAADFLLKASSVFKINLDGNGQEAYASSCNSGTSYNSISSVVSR

MSK2(h), sequence (O75676 whole entry): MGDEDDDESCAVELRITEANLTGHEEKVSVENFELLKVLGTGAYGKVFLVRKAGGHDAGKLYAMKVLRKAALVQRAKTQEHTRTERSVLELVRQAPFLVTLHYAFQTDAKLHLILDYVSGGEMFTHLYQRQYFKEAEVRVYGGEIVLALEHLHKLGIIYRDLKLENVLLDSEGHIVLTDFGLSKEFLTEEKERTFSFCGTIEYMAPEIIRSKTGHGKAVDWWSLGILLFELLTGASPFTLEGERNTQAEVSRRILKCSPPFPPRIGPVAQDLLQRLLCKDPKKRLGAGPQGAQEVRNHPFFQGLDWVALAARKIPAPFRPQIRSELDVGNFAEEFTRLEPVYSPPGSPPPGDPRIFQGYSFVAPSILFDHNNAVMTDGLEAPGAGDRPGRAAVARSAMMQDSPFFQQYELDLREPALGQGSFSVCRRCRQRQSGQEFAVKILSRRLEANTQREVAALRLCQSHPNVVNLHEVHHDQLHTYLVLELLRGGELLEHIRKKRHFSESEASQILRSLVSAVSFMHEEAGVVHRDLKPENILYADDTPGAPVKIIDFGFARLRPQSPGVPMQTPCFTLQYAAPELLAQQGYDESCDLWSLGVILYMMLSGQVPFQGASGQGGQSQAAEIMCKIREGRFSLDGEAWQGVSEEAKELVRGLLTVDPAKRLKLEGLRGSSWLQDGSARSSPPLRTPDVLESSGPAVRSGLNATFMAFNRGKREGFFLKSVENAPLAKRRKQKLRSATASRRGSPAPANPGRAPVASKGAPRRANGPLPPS

With `CC(C)CCC(=O)[C@]1(O)C(O)=C(C(=O)C(C)C)C(=O)[C@H]1CCC(C)C` [TH2, tetrahydroiso-cohumulone] the kinase inhibition (SRPK1(h); 1 μg/ml) was 47% of control, the kinase inhibition (SRPK1(h); 5 μg/ml) was 89% of control and the kinase inhibition (SRPK1(h); 25 μg/ml) was 61% of control. The kinase inhibition (SRPK1(h); 50 μg/ml) was 53% of control, the kinase inhibition (SRPK1(h); 100 μg/ml) was 45% of control and the kinase inhibition (Blk(m); 1 μg/ml) was 108% of control. The kinase inhibition (Blk(m); 5 μg/ml) was 115% of control, the kinase inhibition (Blk(m); 25 μg/ml) was 96% of control and the kinase inhibition (Blk(m); 50 μg/ml) was 72% of control. For the same molecule, the kinase inhibition (Blk(m); 100 μg/ml) was 53% of control, the kinase inhibition (MSK2(h); 1 μg/ml) was 99% of control and the kinase inhibition (MSK2(h); 5 μg/ml) was 94% of control. The kinase inhibition (MSK2(h); 25 μg/ml) was 70% of control, the kinase inhibition (MSK2(h); 50 μg/ml) was 51% of control and the kinase inhibition (MSK2(h); 100 μg/ml) was 37% of control. The kinase inhibition (BrSK1(h); 1 μg/ml) was 104% of control, the kinase inhibition (BrSK1(h); 5 μg/ml) was 101% of control and the kinase inhibition (BrSK1(h); 25 μg/ml) was 82% of control. The kinase inhibition (BrSK1(h); 50 μg/ml) was 66% of control, the kinase inhibition (BrSK1(h); 100 μg/ml) was 50% of control and the kinase inhibition (Src(1-530)(h); 1 μg/ml) was 103% of control. For the same molecule, the kinase inhibition (Src(1-530)(h); 5 μg/ml) was 105% of control, the kinase inhibition (Src(1-530)(h); 25 μg/ml) was 105% of control and the kinase inhibition (Src(1-530)(h); 50 μg/ml) was 102% of control. The kinase inhibition (Src(1-530)(h); 100 μg/ml) was 75% of control, the kinase inhibition (TrkB(h); 1 μg/ml) was 136% of control and the kinase inhibition (TrkB(h); 5 μg/ml) was 132% of control. For the same molecule, the kinase inhibition (TrkB(h); 25 μg/ml) was 144% of control, the kinase inhibition (TrkB(h); 50 μg/ml) was 118% of control and the kinase inhibition (TrkB(h); 100 μg/ml) was 78% of control. For the same molecule, the kinase inhibition (PKCβI(h); 1 μg/ml) was 105% of control, the kinase inhibition (PKCβI(h); 5 μg/ml) was 110% of control and the kinase inhibition (PKCβI(h); 25 μg/ml) was 93% of control. The kinase inhibition (PKCβI(h); 50 μg/ml) was 95% of control, the kinase inhibition (PKCβI(h); 100 μg/ml) was 92% of control and the kinase inhibition (EphA2(h); 1 μg/ml) was 102% of control. For the same molecule, the kinase inhibition (EphA2(h); 5 μg/ml) was 104% of control, the kinase inhibition (EphA2(h); 25 μg/ml) was 105% of control and the kinase inhibition (EphA2(h); 50 μg/ml) was 99% of control. For the same molecule, the kinase inhibition (EphA2(h); 100 μg/ml) was 92% of control, the kinase inhibition (CDK5/p25(h); 1 μg/ml) was 93% of control and the kinase inhibition (CDK5/p25(h); 5 μg/ml) was 96% of control. For the same molecule, the kinase inhibition (CDK5/p25(h); 25 μg/ml) was 103% of control, the kinase inhibition (CDK5/p25(h); 50 μg/ml) was 88% of control and the kinase inhibition (CDK5/p25(h); 100 μg/ml) was 77% of control. The kinase inhibition (PKA(h); 1 μg/ml) was 131% of control, the kinase inhibition (PKA(h); 5 μg/ml) was 124% of control and the kinase inhibition (PKA(h); 25 μg/ml) was 93% of control. For the same molecule, the kinase inhibition (PKA(h); 50 μg/ml) was 94% of control, the kinase inhibition (PKA(h); 100 μg/ml) was 86% of control and the kinase inhibition (Ron(h); 1 μg/ml) was 123% of control. The kinase inhibition (Ron(h); 5 μg/ml) was 124% of control, the kinase inhibition (Ron(h); 25 μg/ml) was 123% of control and the kinase inhibition (Ron(h); 50 μg/ml) was 116% of control. The kinase inhibition (Ron(h); 100 μg/ml) was 94% of control, the kinase inhibition (PAK4(h); 1 μg/ml) was 105% of control and the kinase inhibition (PAK4(h); 5 μg/ml) was 84% of control. The kinase inhibition (PAK4(h); 25 μg/ml) was 98% of control, the kinase inhibition (PAK4(h); 50 μg/ml) was 110% of control and the kinase inhibition (PAK4(h); 100 μg/ml) was 99% of control. For the same molecule, the kinase inhibition (DAPK1(h); 1 μg/ml) was 63% of control, the kinase inhibition (DAPK1(h); 5 μg/ml) was 40% of control and the kinase inhibition (DAPK1(h); 25 μg/ml) was 32% of control. The kinase inhibition (DAPK1(h); 50 μg/ml) was 25% of control and the kinase inhibition (DAPK1(h); 100 μg/ml) was 19% of control.
